# Assay results taken from the supplement of paper PMC10307832.
# Legend:
# Test in all cases: relative viability (nuclei count vs DMSO), 5 days (fraction); higher = more cells survive
# Crizotinib + Phenformin = compound: C[C@@H](Oc1cc(-c2cnn(C3CCNCC3)c2)cnc1N)c1c(Cl)ccc(F)c1Cl [Crizotinib] + N=C(N)NC(=N)NCCc1ccccc1 [Phenformin] (partner 250 µM)
# Method in brief: (§1)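 Each reported value is a median over duplicate plates. It expresses relative viability: treated-well nuclei count divided by vehicle-well nuclei count. Lung cancer cell lines in 1536-well plates were dosed by pin tool a day after seeding, alone with one drug or with a fixed anchor-drug dose plus five library-drug doses (not always all listed) in √10 steps, and nuclei were counted after 5 days.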
# Crizotinib + Decitabine = compound: C[C@@H](Oc1cc(-c2cnn(C3CCNCC3)c2)cnc1N)c1c(Cl)ccc(F)c1Cl [Crizotinib] + Nc1ncn([C@H]2C[C@H](O)[C@@H](CO)O2)c(=O)n1 [Decitabine] (partner 2 µM)
# Method in brief: as §1
# Carfilzomib + Lapatinib = compound: CC(C)C[C@H](NC(=O)[C@H](CCc1ccccc1)NC(=O)CN1CCOCC1)C(=O)N[C@@H](Cc1ccccc1)C(=O)N[C@@H](CC(C)C)C(=O)[C@@]1(C)CO1 [Carfilzomib] + CS(=O)(=O)CCNCc1ccc(-c2ccc3ncnc(Nc4ccc(OCc5cccc(F)c5)c(Cl)c4)c3c2)o1 [Lapatinib] (partner 2 µM)
# Method in brief: as §1
# Crizotinib + Vorinostat = compound: C[C@@H](Oc1cc(-c2cnn(C3CCNCC3)c2)cnc1N)c1c(Cl)ccc(F)c1Cl [Crizotinib] + O=C(CCCCCCC(=O)Nc1ccccc1)NO [Vorinostat] (partner 1 µM)
# Method in brief: as §1
Cell Line,relative viability (Crizotinib + Phenformin; first compound 0.01 µM),relative viability (Crizotinib + Phenformin; first compound 0.03162 µM),relative viability (Crizotinib + Phenformin; first compound 0.1 µM),relative viability (Crizotinib + Phenformin; first compound 0.3162 µM),relative viability (Crizotinib + Phenformin; first compound 1 µM),relative viability (Crizotinib + Decitabine; first compound 0.01 µM),relative viability (Crizotinib + Decitabine; first compound 0.03162 µM),relative viability (Crizotinib + Decitabine; first compound 0.1 µM),relative viability (Crizotinib + Decitabine; first compound 1 µM),relative viability (Carfilzomib + Lapatinib; first compound 0.001 µM),relative viability (Carfilzomib + Lapatinib; first compound 0.003162 µM),relative viability (Carfilzomib + Lapatinib; first compound 0.01 µM),relative viability (Carfilzomib + Lapatinib; first compound 0.03162 µM),relative viability (Carfilzomib + Lapatinib; first compound 0.1 µM),relative viability (Crizotinib + Vorinostat; first compound 0.01 µM),relative viability (Crizotinib + Vorinostat; first compound 0.03162 µM),relative viability (Crizotinib + Vorinostat; first compound 0.1 µM),relative viability (Crizotinib + Vorinostat; first compound 1 µM),relative viability (Crizotinib + Decitabine; first compound 0.3162 µM),relative viability (Crizotinib + Vorinostat; first compound 0.3162 µM)
NCI-H650,0.392,0.451,0.482,0.365,0.44,0.332,0.291,0.323,0.343,0.61,1.33,1.04,0.361,0.18,0.528,0.414,0.396,0.444,–,–
NCI-H1755,0.593,0.681,0.643,0.527,0.569,0.639,0.713,0.755,0.661,1.05,1.12,1.02,0.922,0.279,0.668,0.779,0.743,0.764,0.694,0.757
NCI-H1666,0.514,0.598,0.583,0.558,0.546,0.744,0.651,0.715,0.673,0.611,0.755,0.747,0.407,0.193,1.14,0.999,1.07,0.955,0.712,0.978
EPLC-272H,0.261,0.283,0.302,0.29,0.39,0.339,0.375,0.366,0.436,0.804,1.47,1.06,0.298,0.0991,0.41,0.398,0.361,0.581,–,0.403
PC-14,0.562,0.675,0.642,0.526,0.522,0.182,0.248,0.225,0.248,0.372,0.301,0.317,0.301,0.0926,0.632,0.792,0.693,0.784,0.244,0.608
NCI-H1437,0.278,0.306,0.3,0.272,0.345,0.547,0.551,0.613,0.578,0.78,0.931,0.832,0.431,0.139,0.832,0.832,0.857,0.849,0.61,0.867
NCI-H358,0.231,0.324,0.26,0.309,0.347,0.184,0.215,0.2,0.214,0.377,0.53,0.404,0.177,0.139,0.793,0.658,0.718,0.697,0.241,0.725
LK-2,0.583,0.37,0.221,–,0.325,0.293,0.22,0.289,0.284,0.673,1.19,0.72,0.226,0.217,0.346,0.29,0.314,0.277,0.236,0.252
H3255,0.348,0.424,0.385,0.327,0.334,0.701,0.576,0.616,0.653,0.252,0.338,0.259,0.225,0.296,0.782,0.841,0.765,0.999,0.558,0.784
NCI-H1355,0.431,0.497,0.522,0.382,0.442,0.348,0.344,0.392,0.346,0.872,1.08,1.08,0.941,0.168,0.638,0.629,0.625,0.613,0.338,0.564
NCI-H838,0.553,0.604,0.556,0.516,0.526,0.433,0.473,0.473,0.474,0.889,1.33,1.05,0.2,0.119,0.715,–,0.728,0.701,0.483,0.687
BEN,0.259,0.253,0.256,0.235,0.257,0.687,0.61,0.761,0.647,0.635,0.819,0.854,0.553,0.267,0.553,0.55,0.628,0.573,0.632,0.506
NCI-H1651,0.294,0.356,0.292,0.287,0.336,0.592,0.407,0.63,0.591,0.696,0.742,0.16,0.113,0.101,0.572,0.424,0.582,0.61,0.326,0.398
NCI-H2087,0.36,0.502,0.508,–,0.462,0.259,0.247,0.252,0.274,0.823,1.35,0.829,0.112,0.116,0.679,0.689,0.766,0.731,0.194,0.94
NCI-H520,0.449,0.682,0.588,0.281,0.45,0.474,0.47,0.496,0.482,0.89,1.1,0.622,0.148,0.143,0.568,0.68,0.732,0.722,0.533,0.774
NCI-H460,0.488,0.521,0.536,0.526,0.564,0.451,0.511,0.476,0.452,0.954,1.18,0.955,0.0195,0.0166,0.709,0.69,0.688,0.722,0.645,0.852
SK-MES-1,0.617,0.676,0.638,0.645,0.593,0.318,0.378,0.367,0.335,0.451,0.469,0.443,0.43,0.267,0.993,1.11,1.09,1.07,0.388,0.981
NCI-H661,0.257,0.269,0.285,0.266,0.264,0.546,0.533,0.531,0.569,0.548,0.836,0.533,0.507,0.191,0.706,0.777,0.731,0.775,0.594,0.841
NCI-H1993,0.493,0.51,0.534,0.507,0.509,0.515,0.525,0.608,0.602,0.729,0.89,0.704,0.632,0.493,0.699,0.901,0.68,0.555,0.606,0.468
NCI-H23,0.743,0.855,0.783,–,0.795,0.296,0.272,0.331,0.308,1.01,1.09,0.723,0.171,0.142,0.465,0.648,0.596,0.737,–,–
LCLC-97TM1,0.472,0.468,0.508,0.454,0.441,0.214,0.235,0.212,0.303,0.73,1.58,0.957,0.282,0.142,0.672,0.697,0.686,0.658,0.248,0.223
NCI-H1915,0.382,0.377,0.367,–,0.359,0.229,0.256,0.261,0.26,0.937,1.02,0.973,0.586,0.0673,0.601,0.518,0.502,0.517,0.258,0.458
LOU-NH91,0.684,0.756,0.788,0.706,0.683,0.832,0.832,0.846,0.759,0.767,0.783,0.607,0.309,0.288,0.893,0.927,0.989,0.836,0.759,–
EKVX,0.209,0.241,0.238,0.187,0.221,0.29,0.339,0.323,0.337,0.221,0.416,0.212,0.183,0.137,0.455,0.662,0.708,0.637,0.336,0.712
SK-LU-1,0.544,0.535,0.506,0.499,0.547,0.648,0.715,0.634,0.63,0.931,0.944,0.729,0.127,0.191,0.73,0.727,0.71,0.761,0.599,0.801
LXF-289,0.494,0.512,0.54,0.406,0.557,0.325,0.394,0.402,0.398,0.921,0.942,0.917,0.0958,0.101,0.75,0.799,0.757,0.786,0.344,0.599
NCI-H2009,0.479,0.492,0.513,0.426,0.458,0.382,0.372,0.348,0.392,1.02,1.37,0.828,0.0609,0.0756,0.707,0.723,0.63,0.76,0.387,0.756
